Reference: PubChem BioAssay (NCI)
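Method: 48-hour compound exposure of cells in 96-well plates, five concentrations, linear interpolation of endpoints. GI50 is the concentration that inhibits growth by half. TGI denotes the concentration required for complete inhibition of growth.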

How the values were obtained:
Assay in all cases: NCI-60 cell line screen, 48 h
A498 renal = tested on: A498 renal
DLD-1 colon = tested on: DLD-1 colon
DMS 273 small cell lung = tested on: DMS 273 small cell lung
HOP-92 NSCLC = tested on: HOP-92 NSCLC
M19-MEL melanoma = tested on: M19-MEL melanoma
SK-MEL-5 melanoma = tested on: SK-MEL-5 melanoma
TK-10 renal = tested on: TK-10 renal
KM20L2 colon = tested on: KM20L2 colon
MDA-MB-435 = tested on: MDA-MB-435
PC-3 prostate = tested on: PC-3 prostate

O=C1CC2=CCCC2O1 (stereo unspecified)
TGI (A498 renal): > 100 µM | TGI (DLD-1 colon): > 100 µM | TGI (DMS 273 small cell lung): > 100 µM | TGI (HOP-92 NSCLC): > 100 µM | TGI (M19-MEL melanoma): > 100 µM | TGI (SK-MEL-5 melanoma): > 100 µM | TGI (TK-10 renal): > 100 µM

NNC(=S)N/N=C(\c1nc2ccc(Cl)cc2[nH]c1=O)C(O)c1cccc([N+](=O)[O-])c1 (stereo unspecified)
TGI (A498 renal): > 100 µM | TGI (DMS 273 small cell lung): > 58.7 µM | TGI (HOP-92 NSCLC): > 100 µM | TGI (KM20L2 colon): > 100 µM | TGI (M19-MEL melanoma): > 100 µM | TGI (SK-MEL-5 melanoma): > 100 µM | TGI (TK-10 renal): > 100 µM

CC[C@@]1(O)C(=O)OCc2c1cc1n(c2=O)Cc2cc3c(N)c(OC)ccc3nc2-1
GI50 (A498 renal): 0.156 µM | TGI (A498 renal): 0.726 µM | GI50 (DLD-1 colon): 1 µM | TGI (DLD-1 colon): > 100 µM | GI50 (DMS 273 small cell lung): < 0.0166 µM | TGI (DMS 273 small cell lung): 0.36 µM | GI50 (HOP-92 NSCLC): 0.185 µM | TGI (HOP-92 NSCLC): 1.85 µM | GI50 (KM20L2 colon): 0.125 µM | TGI (KM20L2 colon): 1.8 µM | GI50 (M19-MEL melanoma): 0.159 µM | TGI (M19-MEL melanoma): 1.46 µM | GI50 (SK-MEL-5 melanoma): 0.0739 µM | TGI (SK-MEL-5 melanoma): 0.234 µM | GI50 (TK-10 renal): 2.26 µM | TGI (TK-10 renal): > 50 µM

Cc1ccccc1-c1cc(=O)c2cc(C)c(C)c(C(=O)O)c2o1
TGI (DLD-1 colon): > 100 µM | TGI (DMS 273 small cell lung): > 100 µM | TGI (HOP-92 NSCLC): > 100 µM | TGI (KM20L2 colon): > 100 µM | TGI (M19-MEL melanoma): > 100 µM | TGI (SK-MEL-5 melanoma): > 100 µM | TGI (TK-10 renal): > 100 µM

COc1ccc(C2=NC(CO)[C@H](c3ccccc3)O2)cc1OC (stereo partly specified)
TGI (A498 renal): > 100 µM | TGI (DLD-1 colon): > 100 µM | TGI (DMS 273 small cell lung): > 100 µM | TGI (HOP-92 NSCLC): > 100 µM | TGI (KM20L2 colon): > 100 µM | TGI (M19-MEL melanoma): > 100 µM | TGI (SK-MEL-5 melanoma): > 100 µM

NC(=O)c1c(-c2ccccc2)c(-c2ccccc2)cc2c(=O)c3ccccc3[nH]c12
TGI (A498 renal): 39.7 µM | TGI (DLD-1 colon): > 100 µM | TGI (DMS 273 small cell lung): 46.6 µM | TGI (HOP-92 NSCLC): 55.5 µM | TGI (KM20L2 colon): 72.9 µM | TGI (M19-MEL melanoma): 79.3 µM | TGI (SK-MEL-5 melanoma): 32.2 µM | TGI (TK-10 renal): 35.6 µM

CC12CC(Br)(Br)C(=O)C3C1CCCC32
TGI (A498 renal): 31.1 µM | TGI (DLD-1 colon): 13.6 µM | TGI (DMS 273 small cell lung): 18.2 µM | TGI (HOP-92 NSCLC): 6.19 µM | TGI (KM20L2 colon): 37.9 µM | TGI (M19-MEL melanoma): 22.8 µM | TGI (MDA-MB-435): 8.78 µM | TGI (PC-3 prostate): 25.6 µM | TGI (SK-MEL-5 melanoma): 17.5 µM | TGI (TK-10 renal): 12.5 µM

O=C1C=C(c2ccccc2)NC1(c1ccccc1)c1cc(-c2ccccc2)[nH]c1-c1ccccc1 (stereo unspecified)
TGI (A498 renal): > 100 µM | TGI (DLD-1 colon): > 100 µM | TGI (DMS 273 small cell lung): > 100 µM | TGI (KM20L2 colon): > 100 µM | TGI (M19-MEL melanoma): > 100 µM

CCOC(=O)N1C/C(=C\c2ccc(N(C)C)cc2)C(=O)/C(=C/c2ccc(N(C)C)cc2)C1
TGI (A498 renal): > 100 µM | TGI (DLD-1 colon): > 100 µM | TGI (DMS 273 small cell lung): > 100 µM | TGI (HOP-92 NSCLC): > 100 µM | TGI (KM20L2 colon): > 100 µM | TGI (M19-MEL melanoma): > 100 µM | TGI (SK-MEL-5 melanoma): > 100 µM | TGI (TK-10 renal): > 100 µM

CC1=C(C(=O)Nc2cc(F)c(F)cc2F)C(c2ccc(N(C)C)cc2)C(C(=O)Nc2cc(F)c(F)cc2F)=C(C)N1
TGI (A498 renal): 80.5 µM | TGI (DLD-1 colon): > 100 µM | TGI (DMS 273 small cell lung): > 100 µM | TGI (HOP-92 NSCLC): 15.2 µM | TGI (KM20L2 colon): > 100 µM | TGI (M19-MEL melanoma): > 100 µM | GI50 (MDA-MB-435): 41.7 µM | TGI (MDA-MB-435): > 100 µM | GI50 (PC-3 prostate): 13.7 µM | TGI (PC-3 prostate): > 100 µM | TGI (SK-MEL-5 melanoma): > 74.3 µM | TGI (TK-10 renal): > 96 µM

O=C1C2C3C=CC(C2C(=O)N1CN1CCOCC1)C1C2C(=O)N(CN4CCOCC4)C(=O)C2C31 (stereo unspecified)
TGI (A498 renal): > 100 µM | TGI (DLD-1 colon): > 100 µM | TGI (DMS 273 small cell lung): 33.3 µM | TGI (HOP-92 NSCLC): > 93.8 µM | TGI (KM20L2 colon): 63.1 µM | TGI (M19-MEL melanoma): 40.5 µM | TGI (MDA-MB-435): > 100 µM | TGI (PC-3 prostate): > 100 µM | TGI (SK-MEL-5 melanoma): > 58 µM | TGI (TK-10 renal): > 93.4 µM

COc1ccc(C)cc1-c1ccc(-c2cc(C)ccc2OC)o1
TGI (A498 renal): > 100 µM | TGI (DLD-1 colon): > 100 µM | TGI (DMS 273 small cell lung): > 100 µM | TGI (HOP-92 NSCLC): > 100 µM | TGI (KM20L2 colon): > 100 µM | TGI (M19-MEL melanoma): > 100 µM | TGI (TK-10 renal): > 100 µM

CN(C)c1ccc(-c2nc(N)nc3c2CCCC3)cc1
TGI (A498 renal): > 100 µM | TGI (DLD-1 colon): > 100 µM | TGI (DMS 273 small cell lung): > 100 µM | TGI (KM20L2 colon): > 100 µM | TGI (M19-MEL melanoma): > 100 µM | TGI (SK-MEL-5 melanoma): > 100 µM | TGI (TK-10 renal): > 100 µM

COc1cc(Br)c(C=Nc2cccc3ccc(OS(=O)(=O)c4ccc([N+](=O)[O-])cc4)cc23)cc1OC
TGI (A498 renal): > 100 µM | TGI (DLD-1 colon): > 100 µM | TGI (HOP-92 NSCLC): > 100 µM | TGI (M19-MEL melanoma): > 100 µM | TGI (SK-MEL-5 melanoma): > 100 µM

O=[N+]([O-])c1cc2c(ccc3ccccc32)o1
GI50 (A498 renal): 0.127 µM | TGI (A498 renal): 0.277 µM | GI50 (HOP-92 NSCLC): 0.257 µM | TGI (HOP-92 NSCLC): 0.774 µM | GI50 (MDA-MB-435): 0.158 µM | TGI (MDA-MB-435): 0.35 µM | GI50 (PC-3 prostate): 1.85 µM | TGI (PC-3 prostate): 14.5 µM | GI50 (SK-MEL-5 melanoma): 0.141 µM | TGI (SK-MEL-5 melanoma): 0.296 µM | GI50 (TK-10 renal): 1.82 µM | TGI (TK-10 renal): 7.43 µM

O=S(=O)(c1ccccc1)C1(C2(S(=O)(=O)c3ccccc3)CCN=N2)CCN=N1 (stereo unspecified)
TGI (DLD-1 colon): > 100 µM | TGI (DMS 273 small cell lung): > 100 µM | TGI (M19-MEL melanoma): > 100 µM | TGI (TK-10 renal): > 100 µM

O=C1C[C@@H]2[C@@H](C=CC23CCCC3)N1O
TGI (A498 renal): > 100 µM | TGI (DLD-1 colon): > 100 µM | TGI (DMS 273 small cell lung): > 100 µM | TGI (KM20L2 colon): > 100 µM | TGI (M19-MEL melanoma): > 100 µM | TGI (SK-MEL-5 melanoma): > 100 µM | TGI (TK-10 renal): > 100 µM

COc1cccc(C2=C(c3cn(C)c4c(C)cccc34)C(=O)NC2=O)c1
GI50 (A498 renal): 5.89 µM | TGI (A498 renal): > 21.9 µM | GI50 (HOP-92 NSCLC): > 25 µM | TGI (HOP-92 NSCLC): > 25 µM | GI50 (MDA-MB-435): 18.2 µM | TGI (MDA-MB-435): > 25 µM | GI50 (PC-3 prostate): > 18.3 µM | TGI (PC-3 prostate): > 25 µM | GI50 (SK-MEL-5 melanoma): 21.5 µM | TGI (SK-MEL-5 melanoma): > 25 µM | GI50 (TK-10 renal): > 25 µM | TGI (TK-10 renal): > 25 µM
